Test system: rice blast fungi
Type: in vivo, Pyricularia grisea

| Structure (SMILES) | Inhibiting Ratio (%) (at 250 ppm) |
| --- | --- |
| Cl.Cn1c(CC(=O)Nc2ccc([N+](=O)[O-])cc2)csc1=Nc1ccc(OC(F)(F)F)cc1 [Compound 176, 2-(4-trifluoromethoxyphenylimino)-3-methyl-4-[N-(4-nitrophenyl)carbamoylmethyl]-4-thiazoline hydrochloride] | 96% |
| CC(C)Oc1cc(N=c2scc(CC(=O)Nc3ccc(Br)cc3)n2C)c(F)cc1Cl.Cl [Compound 185, 2-(4-chloro-5-isopropoxy-2-fluorophenylimino)-3-methyl-4-[N-(4-bromophenyl)carbamoylmethyl]-1,3-thiazol-4-ine hydrochloride] | 97% |
| Cl.Cn1c(CC(=O)Nc2ccc(OC(F)(F)F)cc2)csc1=Nc1ccc(F)cc1F [Compound 192, 2-(2,4-difluorophenylimino)-3-methyl-4-[N-(4-trifluoromethoxyphenyl)carbamoylmethyl]-1,3-thiazol-4-ine hydrochloride] | 92% |
| COc1ccc(NC(=O)Cc2csc(=Nc3ccc(C)cc3C)n2C)cc1.Cl [Compound 196, 2-(2,4-dimethylphenylimino)-3-methyl-4-[N-(4-methoxyphenyl)carbamoylmethyl]-1,3-thiazol-4-ine hydrochloride] | 92% |
| COc1ccc(NC(=O)Cc2csc(=Nc3cc(C)ccc3OC)n2C)cc1.Cl [Compound 198, 2-(2-methoxy-5-methylphenylimino)-3-methyl-4-[N-(4-methoxyphenyl)carbamoylmethyl]-1,3-thiazol-4-ine hydrochloride] | 95% |
| COc1ccc(NC(=O)Cc2csc(=Nc3ccc(Cl)cc3F)n2C)cc1.Cl [Compound 207, 2-(4-chloro-2-fluorophenylimino)-3-methyl-4-[N-(4-methoxyphenyl)carbamoylmethyl]-1,3-thiazol-4-ine hydrochloride] | 93% |
| COc1ccc(NC(=O)Cc2csc(=Nc3cc(OC(C)C)c(Cl)cc3F)n2C)cc1.Cl [Compound 208, 2-(4-chloro-5-isopropoxy-2-fluorophenylimino)-3-methyl-4-[N-(4-methoxyphenyl)carbamoylmethyl]-1,3-thiazol-4-ine hydrochloride] | 97% |
| COc1ccc(NC(=O)Cc2csc(=Nc3ccc(OC(F)(F)F)cc3)n2C)cc1.Cl [Compound 209, 2-(4-trifluoromethoxyphenylimino)-3-methyl-4-[N-(4-methoxyphenyl)carbamoylmethyl]-1,3-thiazol-4-ine hydrochloride] | 97% |
| Cl.Cn1c(CC(=O)Nc2ccc(C#N)cc2)csc1=Nc1ccc(OC(F)(F)F)cc1 [Compound 215, 2-(4-trifluoromethoxyphenylimino)-3-methyl-4-[N-(4-cyanophenyl)carbamoylmethyl]-4-thiazoline hydrochloride] | 93% |
| CCCCc1ccc(N=c2scc(CC(=O)Nc3ccc(C#N)cc3)n2C)cc1.Cl [Compound 221, 2-[4-(n-butyl)phenylimino]-3-methyl-4-[N-(4-cyanophenyl)carbamoylmethyl]-4-thiazoline hydrochloride] | 87% |
| CC(C)Oc1cc(N=c2scc(CC(=O)Nc3ccc(C#N)cc3)n2C)c(F)cc1Cl.Cl [Compound 226, 2-(4-chloro-5-isopropoxy-2-fluorophenylimino)-3-methyl-4-[N-(4-cyanophenyl)carbamoylmethyl]-4-thiazoline hydrochloride] | 92% |
| Cc1ccc(N=c2scc(CC(=O)Nc3ccc(C)c(Cl)c3)n2C)c(C)c1.Cl [Compound 227, 2-(2,4-dimethylphenylimino)-3-methyl-4-[N-(3-chloro-4-methylphenyl)carbamoylmethyl]-4-thiazoline hydrochloride] | 97% |
| Cc1ccc(NC(=O)Cc2csc(=Nc3ccc(C#N)cc3)n2C)cc1Cl.Cl [Compound 228, 2-(4-cyanophenylimino)-3-methyl-4-[N-(3-chloro-4-methylphenyl)carbamoylmethyl]-4-thiazoline hydrochloride] | 97% |
| Cc1ccc(NC(=O)Cc2csc(=Nc3ccc(Br)cc3)n2C)cc1Cl.Cl [Compound 229, 2-(4-bromophenylimino)-3-methyl-4-[N-(3-chloro-4-methylphenyl)carbamoylmethyl]-4-thiazoline hydrochloride] | 93% |
| Cc1ccc(NC(=O)Cc2csc(=Nc3cc(Cl)cc(Cl)c3)n2C)cc1Cl.Cl [Compound 230, 2-(3,5-dichlorophenylimino)-3-methyl-4-[N-(3-chloro-4-methylphenyl)carbamoylmethyl]-4-thiazoline hydrochloride] | 93% |
| Cc1ccc(NC(=O)Cc2csc(=Nc3ccc(OC(F)(F)F)cc3)n2C)cc1Cl.Cl [Compound 231, 2-(4-trifluoromethoxyphenylimino)-3-methyl-4-[N-(3-chloro-4-methylphenyl)carbamoylmethyl]-4-thiazoline hydrochloride] | 93% |
| Cc1ccc(NC(=O)Cc2csc(=Nc3ccc(F)cc3F)n2C)cc1Cl.Cl [Compound 232, 2-(2.4-difluorophenylimino)-3-methyl-4-[N-(3-chloro-4-methylphenyl)carbamoylmethyl]-4-thiazoline hydrochloride] | 92% |

| Structure (SMILES) | Inhibiting Ratio (%) (at 250 ppm) |
| --- | --- |
| Cc1ccc(NC(=O)Cc2csc(=Nc3ccc(Cl)cc3)n2C)cc1Cl.Cl [Compound 233, 2-(4-chlorophenylimino)-3-methyl-4-[N-(3-chloro-4-methylphenyl)carbamoylmethyl]-4-thiazoline hydrochloride] | 97% |
| Cc1ccc(NC(=O)Cc2csc(=Nc3ccccc3F)n2C)cc1Cl.Cl [Compound 235, 2-(2-fluorophenylimino)-3-methyl-4-[N-(3-chloro-4-methylphenyl)carbamoylmethyl]-4-thiazoline hydrochloride] | 92% |
| Cc1ccc(NC(=O)Cc2csc(=Nc3cccc(F)c3)n2C)cc1Cl.Cl [Compound 236, 2-(3-fluorophenylimino)-3-methyl-4-[N-(3-chloro-4-methylphenyl)carbamoylmethyl]-1,3-thiazol-4-ine hydrochloride] | 97% |
| Cc1ccc(NC(=O)Cc2csc(=Nc3ccc(F)c(Cl)c3)n2C)cc1Cl.Cl [Compound 238, 2-(3-chloro-4-fluorophenylimino)-3-methyl-4-[N-(3-chloro-4-methylphenyl)carbamoylmethyl]-1,3-thiazol-4-ine hydrochloride] | 93% |
| COc1ccc(C)cc1N=c1scc(CC(=O)Nc2ccc(C)c(Cl)c2)n1C.Cl [Compound 239, 2-(2-methoxy-5-methylphenylimino)-3-methyl-4-[N-(3-chloro-4-methylphenyl)carbamoylmethyl]-1,3-thiazol-4-ine hydrochloride] | 92% |
| Cc1ccc(NC(=O)Cc2csc(=Nc3ccc(Oc4ccccc4)cc3)n2C)cc1Cl.Cl [Compound 240, 3-methyl-2-(4-phenoxyphenylimino)-4-[N-(3-chloro-4-methylphenyl)carbamoylmethyl]-1,3-thiazol-4-ine hydrochloride] | 88% |
| Cc1ccc(NC(=O)Cc2csc(=Nc3cc(OC(C)C)c(Cl)cc3F)n2C)cc1Cl.Cl [Compound 257, 2-(4chloro-2-fluoro-5-isopropoxyphenylimino)-3-methyl-4-[N-(3-chloro-4-methylphenyl)carbamoylmethyl]-1,3-thiazol-4-ine hydrochloride] | 88% |
| Cl.O=C(Cc1csc(=Nc2ccc(F)cc2F)n1C1CC1)Nc1ccc(Br)cc1 [Compound 258, 2-(2,4-difluorophenylimino)-3-cyclopropyl-4-[N-(4-bromophenyl)carbamoylmethyl]-1,3-thiazol-4-ine hydrochloride] | 91% |
| Cc1ccc(N=c2scc(CC(=O)Nc3ccc(Br)cc3)n2C2CC2)c(C)c1.Cl [Compound 263, 2-(2,4-dimethylphenylimino)-3-cyclopropyl-4-[N-(4-bromophenyl)carbamoylmethyl]-1,3-thiazol-4-ine hydrochloride] | 96% |
| Br.CC(C)Oc1cccc(N=c2scc(CC(=O)Nc3ccc(Cl)cc3)n2C)c1 [Compound 303, 2-(3-isopropoxyphenylimino)-3-methyl-4-[N-(4-chlorophenyl)carbamoylmethyl]-1,3-thiazol-4-ine hydrobromide] | 100% |
| Br.CCc1ccc(N=c2scc(CC(=O)Nc3ccc(Cl)cc3)n2C)cc1 [Compound 304, 2-(4-ethylphenylimino)-3-methyl-4-[N-(4-chlorophenyl)carbamoylmethyl]-1,3-thiazol-4-ine hydrobromide] | 100% |
| Br.Cn1c(CC(=O)Nc2ccc(Cl)cc2)csc1=Nc1ccccc1 [Compound 305, 2-phenylimino-3-methyl-4-[N-(4-chlorophenyl)carbamoylmethyl]-1,3-thiazol-4-ine hydrobromide] | 100% |
| Br.COc1ccc(NC(=O)Cc2csc(=Nc3ccccc3)n2C)cc1 [Compound 306, 2-phenylimino-3-methyl-4-[N-(4-methoxyphenyl)carbamoylmethyl]-1,3-thiazol-4-ine hydrobromide] | 93% |
| Br.COc1ccc(N=c2scc(CC(=O)Nc3ccc(OC)cc3)n2C)cc1 [Compound 307, 2-(4-methoxyphenylimino)-3-methyl-4-[N-(4-methoxyphenyl)carbamoylmethyl]-1,3-thiazol-4-ine hydrobromide] | 100% |
| Br.COc1ccc(N=c2scc(CC(=O)Nc3ccc(Cl)cc3)n2C)cc1 [Compound 308, 2-(4-methoxyphenylimino)-3-methyl-4-[N-(4-chlorophenyl)carbamoylmethyl]-1,3-thiazol-4-ine hydrobromide] | 99% |
| Br.COc1ccc(NC(=O)Cc2csc(=Nc3ccc(C)cc3)n2C)cc1 [Compound 309, 2-(4-methylphenylimino)-3-methyl-4-[N-(4-methoxyphenyl)carbamoylmethyl]-1,3-thiazol-4-ine hydrobromide] | 100% |
| Br.Cc1ccccc1N=c1scc(CC(=O)Nc2ccc(Cl)cc2)n1C [Compound 310, 2-(2-methylphenylimino)-3-methyl-4-[N-(4-chlorophenyl)carbamoylmethyl]1,3-thiazol-4-ine hydrobromide] | 100% |
